SMILES strings stand for the structures.

Holding throughout (assay type): in vivo
For experiment [1], the system named is Abutilon theophrasti. Put plainly: Pre-emergence herbicidal activity, ABUTH. Conditions: application pre-emergence, 1000 g/Ha, evaluated after 13 days; 5=total damage to plant, 0=no damage to plant. The procedure: (§1) Seeds of a variety of test species were sown in standard soil in pots. After cultivation for one day (pre-emergence) under controlled conditions in a glasshouse (at 24/16° C., day/night; 14 hours light; 65% humidity), the plants were sprayed with an aqueous spray solution derived from the formulation of the technical active ingredient in acetone/water (50:50) solution containing 0.5% Tween 20 (polyoxyethelyene sorbitan monolaurate, CAS RN 9005-64-5). The test plants were then grown in a glasshouse under controlled conditions (at 24/16° C., day/night; 14 hours light; 65% humidity) and watered twice daily. After 13 days, the test was evaluated (5=total damage to plant; 0=no damage to plant).

Experiment [2] deals with Amaranthus retroflexus. As to the kind of experiment: Pre-emergence herbicidal activity, AMARE. Conditions: application pre-emergence, 1000 g/Ha, evaluated after 13 days; 5=total damage to plant, 0=no damage to plant. The protocol: as §1
The test system of experiment [3] is Lolium perenne. As to the kind of experiment: Pre-emergence herbicidal activity, LOLPE. Conditions: application pre-emergence, 1000 g/Ha, evaluated after 13 days; 5=total damage to plant, 0=no damage to plant. The protocol:
as §1

Experiment [4] has as its system Setaria faberi. As to the kind of experiment: Pre-emergence herbicidal activity, SETFA. Conditions: application pre-emergence, 1000 g/Ha, evaluated after 13 days; 5=total damage to plant, 0=no damage to plant. The procedure:
as §1

Experiment [5] deals with Echinochloa crus-galli. Put plainly: Pre-emergence herbicidal activity, ECHCG. Conditions: application pre-emergence, 1000 g/Ha, evaluated after 13 days; 5=total damage to plant, 0=no damage to plant. The protocol: as §1
For experiment [6], the system named is Zea mays. As to the kind of experiment: Pre-emergence herbicidal activity, ZEAMX. Conditions: application pre-emergence, 1000 g/Ha, evaluated after 13 days; 5=total damage to plant, 0=no damage to plant. The procedure: as §1
In experiment [7] the test system is Abutilon theophrasti. As to the kind of experiment: Post-emergence herbicidal activity, ABUTH. Conditions: application post-emergence, 1000 g/Ha, evaluated after 13 days; 5=total damage to plant, 0=no damage to plant. The procedure:
(§2) Seeds of a variety of test species were sown in standard soil in pots. After 8 days cultivation (post-emergence) under controlled conditions in a glasshouse (at 24/16° C., day/night; 14 hours light; 65% humidity), the plants were sprayed with an aqueous spray solution derived from the formulation of the technical active ingredient in acetone/water (50:50) solution containing 0.5% Tween 20 (polyoxyethelyene sorbitan monolaurate, CAS RN 9005-64-5). The test plants were then grown in a glasshouse under controlled conditions (at 24/16° C., day/night; 14 hours light; 65% humidity) and watered twice daily. After 13 days, the test was evaluated (5=total damage to plant; 0=no damage to plant).

Experiment [8] concerns Amaranthus retroflexus. Put plainly: Post-emergence herbicidal activity, AMARE. Conditions: application post-emergence, 1000 g/Ha, evaluated after 13 days; 5=total damage to plant, 0=no damage to plant. The protocol:
as §2

Experiment [9] relates to Lolium perenne. Put plainly: Post-emergence herbicidal activity, LOLPE. Conditions: application post-emergence, 1000 g/Ha, evaluated after 13 days; 5=total damage to plant, 0=no damage to plant. The protocol: as §2
Experiment [10] concerns Setaria faberi. Put plainly: Post-emergence herbicidal activity, SETFA. Conditions: application post-emergence, 1000 g/Ha, evaluated after 13 days; 5=total damage to plant, 0=no damage to plant. The protocol:
as §2

Experiment [11] concerns Echinochloa crus-galli. As to the kind of experiment: Post-emergence herbicidal activity, ECHCG. Conditions: application post-emergence, 1000 g/Ha, evaluated after 13 days; 5=total damage to plant, 0=no damage to plant. The protocol: as §2
For experiment [12], the system named is Zea mays. Put plainly: Post-emergence herbicidal activity, ZEAMX. Conditions: application post-emergence, 1000 g/Ha, evaluated after 13 days; 5=total damage to plant, 0=no damage to plant. The procedure:
as §2

In the case of `CCO[C@@H]1C(O)N(c2ncc(C(F)(F)F)s2)C(=O)N1C` (some centres unmarked) [Compound A8], the ABUTH damage score in the experiment with Abutilon theophrasti [1] and in the experiment with Abutilon theophrasti [7] was 5 in each case. Also, the AMARE damage score in the experiment with Amaranthus retroflexus [2] and in the experiment on Amaranthus retroflexus [8] was 5 throughout. The results for the LOLPE damage score in the experiment with Lolium perenne [3] and in the experiment on Lolium perenne [9] were 4 and 5, respectively. The SETFA damage score in the experiment with Setaria faberi [4] and in the experiment on Setaria faberi [10] was 5 throughout. Further, the ECHCG damage score with Echinochloa crus-galli [5] and in the experiment on Echinochloa crus-galli [11] was 5 in each case. The ZEAMX damage score in the experiment on Zea mays [6] was found to be 3; with Zea mays [12], 5.

In the case of `CCOC1C(O)N(c2ncc(C(F)(F)F)s2)C(=O)N1C` (centres unmarked) [Compound A2, 5-ethoxy-4-hydroxy-1-methyl-3-[5-(trifluoromethyl)thiazol-2-yl]imidazolidin-2-one], the ABUTH damage score with Abutilon theophrasti [1] and in the experiment with Abutilon theophrasti [7] was 5 each time. Further, the AMARE damage score in the experiment on Amaranthus retroflexus [2] and in the experiment with Amaranthus retroflexus [8] was 5 in each case. The LOLPE damage score with Lolium perenne [3] and in the experiment on Lolium perenne [9] was 5 in each case. The SETFA damage score in the experiment on Setaria faberi [4] and in the experiment with Setaria faberi [10] was 5 throughout. Moreover, the ECHCG damage score with Echinochloa crus-galli [5] and with Echinochloa crus-galli [11] was 5 each time. Further, the results for the ZEAMX damage score in the experiment on Zea mays [6] and in the experiment with Zea mays [12] were 3 and 5, respectively.

As to `CN1C(=O)N(c2ncc(C(F)(F)F)s2)C(O)C1O` (centres unmarked) [Compound A4, 4,5-dihydroxy-1-methyl-3-[5-(trifluoromethyl)thiazol-2-yl]imidazolidin-2-one], the ABUTH damage score in the experiment with Abutilon theophrasti [1] and with Abutilon theophrasti [7] was 5 each time. The AMARE damage score in the experiment with Amaranthus retroflexus [2] and in the experiment with Amaranthus retroflexus [8] was 5 each time. The values for the LOLPE damage score in the experiment on Lolium perenne [3] and with Lolium perenne [9] were 4 and 5, respectively. Besides, the SETFA damage score in the experiment with Setaria faberi [4] worked out at 4; in the experiment with Setaria faberi [10], 5. Further, the ECHCG damage score in the experiment on Echinochloa crus-galli [5] and in the experiment on Echinochloa crus-galli [11] was 5 throughout. Besides, the ZEAMX damage score is 3 with Zea mays [6] and 4 in the experiment on Zea mays [12].

In the case of `CCCOC1C(O)N(c2ncc(C(F)(F)F)s2)C(=O)N1C` (centres unmarked) [Compound A1], the ABUTH damage score in the experiment on Abutilon theophrasti [1] and in the experiment on Abutilon theophrasti [7] was 5 in each case. Also, the AMARE damage score in the experiment with Amaranthus retroflexus [2] and with Amaranthus retroflexus [8] was 5 each time. Also, the LOLPE damage score with Lolium perenne [3] came out at 4; in the experiment on Lolium perenne [9], 5. The SETFA damage score in the experiment on Setaria faberi [4] is reported as 4; in the experiment with Setaria faberi [10] it was 5. The ECHCG damage score in the experiment with Echinochloa crus-galli [5] and in the experiment with Echinochloa crus-galli [11] was 5 throughout. Further, the ZEAMX damage score in the experiment on Zea mays [6] was 1; in the experiment on Zea mays [12] it was 3.

In the case of `CCO[C@H]1C(O)N(c2ncc(C(F)(F)F)s2)C(=O)N1C` (some centres unmarked) [Compound A9], the ABUTH damage score with Abutilon theophrasti [1] is listed as 2; in the experiment with Abutilon theophrasti [7], 3. The AMARE damage score in the experiment with Amaranthus retroflexus [2] and with Amaranthus retroflexus [8] was 5 in each case. Further, the LOLPE damage score in the experiment on Lolium perenne [3] was 2; with Lolium perenne [9] it was 3. Moreover, the SETFA damage score in the experiment with Setaria faberi [4] and in the experiment on Setaria faberi [10] was 4 each time. Moreover, the ECHCG damage score in the experiment on Echinochloa crus-galli [5] is recorded as 1; with Echinochloa crus-galli [11], 2. Besides, the ZEAMX damage score in the experiment on Zea mays [6] is 1; in the experiment on Zea mays [12], 2.

Turning to `CCOC1C(O)N(c2ncc(C(C)C)s2)C(=O)N1C` (centres unmarked) [Compound A10], the ABUTH damage score in the experiment on Abutilon theophrasti [1] is 0; in the experiment on Abutilon theophrasti [7] it was 4. In addition, the AMARE damage score turned out to be 4 with Amaranthus retroflexus [2] and 3 in the experiment with Amaranthus retroflexus [8]. Besides, in the experiment with Lolium perenne [3], the LOLPE damage score is 0. In addition, the SETFA damage score in the experiment on Setaria faberi [4] was determined as 0; in the experiment on Setaria faberi [10], 2. Moreover, the ECHCG damage score is listed as 0 with Echinochloa crus-galli [5] and 2 in the experiment on Echinochloa crus-galli [11]. Further, the ZEAMX damage score in the experiment with Zea mays [6] and in the experiment on Zea mays [12] was 0 in each case.

Consider `CN1CC(O)N(c2ncc(C(F)(F)F)s2)C1=O` (centres unmarked) [Compound A5, 4-hydroxy-1-methyl-3-[5-(trifluoromethyl)thiazol-2-yl]imidazolidin-2-one], for which the ABUTH damage score in the experiment on Abutilon theophrasti [1] and in the experiment on Abutilon theophrasti [7] was 5 each time. In addition, the AMARE damage score in the experiment on Amaranthus retroflexus [2] and with Amaranthus retroflexus [8] was 5 in each case. The LOLPE damage score in the experiment on Lolium perenne [3] and with Lolium perenne [9] was 5 in each case. The SETFA damage score with Setaria faberi [4] and in the experiment with Setaria faberi [10] was 5 each time. Also, the ECHCG damage score in the experiment on Echinochloa crus-galli [5] was found to be 4; in the experiment on Echinochloa crus-galli [11] it was 5. The results for the ZEAMX damage score in the experiment on Zea mays [6] and in the experiment with Zea mays [12] were 2 and 5, respectively.

Consider `COC1C(O)N(c2ncc(C(F)(F)F)s2)C(=O)N1C` (centres unmarked) [Compound A3], for which the ABUTH damage score in the experiment on Abutilon theophrasti [1] and in the experiment on Abutilon theophrasti [7] was 5 throughout. Further, the AMARE damage score with Amaranthus retroflexus [2] and in the experiment with Amaranthus retroflexus [8] was 5 in each case. Moreover, the LOLPE damage score in the experiment on Lolium perenne [3] and in the experiment on Lolium perenne [9] was 5 in each case. The SETFA damage score in the experiment on Setaria faberi [4] and with Setaria faberi [10] was 5 each time. Besides, the ECHCG damage score with Echinochloa crus-galli [5] and with Echinochloa crus-galli [11] was 5 each time. The ZEAMX damage score in the experiment with Zea mays [6] turned out to be 2; with Zea mays [12] it was 4.

With `CON1C(=O)N(c2ncc(C(F)(F)F)s2)C(O)C1C` (centres unmarked) [Compound B7], the ABUTH damage score in the experiment on Abutilon theophrasti [1] and in the experiment on Abutilon theophrasti [7] was 5 in each case. The AMARE damage score in the experiment with Amaranthus retroflexus [2] and in the experiment with Amaranthus retroflexus [8] was 5 in each case. Further, the LOLPE damage score in the experiment with Lolium perenne [3] came to 4; with Lolium perenne [9], 5. Further, the SETFA damage score in the experiment on Setaria faberi [4] and in the experiment with Setaria faberi [10] was 5 each time. Further, the ECHCG damage score with Echinochloa crus-galli [5] was 4; in the experiment with Echinochloa crus-galli [11] it was 5. In addition, the ZEAMX damage score in the experiment on Zea mays [6] is recorded as 3; with Zea mays [12] it was 4.

`C[C@@H]1C(O)N(c2ncc(C(F)(F)F)s2)C(=O)N1C` (mixture of isomers) [Compound A6]: the ABUTH damage score in the experiment with Abutilon theophrasti [1] and with Abutilon theophrasti [7] was 5 throughout. For the same compound, the AMARE damage score with Amaranthus retroflexus [2] and with Amaranthus retroflexus [8] was 5 throughout. Besides, the LOLPE damage score in the experiment with Lolium perenne [3] and with Lolium perenne [9] was 5 each time. For the same compound, the SETFA damage score with Setaria faberi [4] and in the experiment with Setaria faberi [10] was 5 each time. In addition, the ECHCG damage score with Echinochloa crus-galli [5] and in the experiment with Echinochloa crus-galli [11] was 5 in each case. Further, the ZEAMX damage score is 4 with Zea mays [6] and 5 in the experiment on Zea mays [12].

Regarding `CN1CC(O)N(c2ncc(C(C)(C)C)s2)C1=O` (centres unmarked) [Compound A7], the ABUTH damage score in the experiment with Abutilon theophrasti [1] and in the experiment on Abutilon theophrasti [7] was 5 throughout. The AMARE damage score with Amaranthus retroflexus [2] and in the experiment on Amaranthus retroflexus [8] was 5 each time. Also, the figures for the LOLPE damage score in the experiment with Lolium perenne [3] and in the experiment on Lolium perenne [9] were 4 and 5, respectively. The SETFA damage score with Setaria faberi [4] and in the experiment with Setaria faberi [10] was 5 throughout. Besides, the results for the ECHCG damage score in the experiment with Echinochloa crus-galli [5] and in the experiment with Echinochloa crus-galli [11] were 4 and 5, respectively. In addition, the ZEAMX damage score in the experiment on Zea mays [6] is 3; in the experiment with Zea mays [12], 5.

The values are drawn from patent US10098351B2, “Herbicidal compounds” (SYNGENTA PARTICIPATIONS AG, priority 2014, dated 2018).
